# Like-named read-outs stand apart in the source and are kept apart here.
# Assays:
# [1] = Solubility studies, shake-flask method with HPLC quantification of HAL; format: physicochemical; conditions: for solubility in KCl pH 1.2: buffer KCl (0.2 M) pH 1.2, 24 h stirring at 25 °C; for solubility in KCl pH 1.2 / solubility in PBS pH 6.8: HAL concentration by HPLC at 248 nm; for improvement over HAL (solubility in KCl pH 1.2): buffer KCl pH 1.2, ratio to HAL solubility; for solubility in PBS pH 6.8: buffer PBS (0.2 M) pH 6.8, 24 h stirring at 25 °C; for improvement over HAL (solubility in PBS pH 6.8): buffer PBS pH 6.8, ratio to HAL solubility
# Description: A Scharlau (Barcelona, Spain) 100 C18 chromatographic column (3 μm, 150 × 4.6 mm) was set at 25 °C and used for compound separation, using an isocratic elution method. The mobile phase was composed of a mixture of 90% acetonitrile and 10% water. The flow rate was 0.8 mL/min, and the injection volume was 30 μL. ChemStation software was used for data acquisition and analysis (Agilent Technologies, Santa Clara, CA, USA).
# [2] = Acidity values (pKa) of the molecules, literature values; format: physicochemical; conditions: pKa1 of HAL minus pKa1 of coformer
# [3] = high permeability but poor solubility in aqueous solution; ref [5],[6]; cited from earlier work
# [4] = 25 °C, pH 1.2, aqueous buffer, thermodynamic from solid, read-out: solubility in KCl pH 1.2
# [5] = 25 °C, pH 6.8, aqueous buffer, thermodynamic from solid, read-out: solubility in PBS pH 6.8
smiles,measurement,setting,value
O=C(CCCN1CCC(O)(c2ccc(Cl)cc2)CC1)c1ccc(F)cc1.O=C(CCCN1CCC(O)(c2ccc(Cl)cc2)CC1)c1ccc(F)cc1.O=C(O)/C=C/C(=O)O.O=C(O)/C=C/C(=O)O [(HAL^+)2·(FU^2–)·(FU)],solubility at 24 h,[1]; [4],1060 ± 27 µg/mL
same,solubility at 24 h,[1]; [5],33 ± 4 µg/mL
same,solubility at 24 h,"[1]; pH 1.2, read-out: solubility in KCl pH 1.2",~1000 µg/mL
O=C(CCCN1CCC(O)(c2ccc(Cl)cc2)CC1)c1ccc(F)cc1.O=C(CCCN1CCC(O)(c2ccc(Cl)cc2)CC1)c1ccc(F)cc1.O=C(O)CCCCCCC(=O)O.O=C(O)CCCCCCC(=O)O [(HAL^+)2·(SU^2–)·(SU)],solubility in KCl pH 1.2,[1],1.074 ± 0.036 mg/mL
same,improvement over HAL (solubility in KCl pH 1.2),[1],1.3×
same,solubility in PBS pH 6.8,[1],0.017 ± 0.001 mg/mL
same,improvement over HAL (solubility in PBS pH 6.8),[1],2.3×
O=C(CCCN1CCC(O)(c2ccc(Cl)cc2)CC1)c1ccc(F)cc1.O=C(CCCN1CCC(O)(c2ccc(Cl)cc2)CC1)c1ccc(F)cc1.O=C(O)c1ccc(C(=O)O)cc1.O=C(O)c1ccc(C(=O)O)cc1 [(HAL^+)2·(TR^2–)·(TR)],solubility in KCl pH 1.2,[1],0.678 ± 0.019 mg/mL
same,solubility in PBS pH 6.8,[1],0.051 ± 0.002 mg/mL
"O=C(O)CCCC(=O)O [Glutaric acid, glutaric acid]",ΔpKa1 (difference of acidity of the coformer with HAL),[2],3.71
"O=C(CCCN1CCC(O)(c2ccc(Cl)cc2)CC1)c1ccc(F)cc1 [HAL, Haloperidol, reference compound]",Biopharmaceutics Classification System (BCS) class,[3],Class II
same,solubility at 24 h,"[1]; KCl buffer (0.2 M) pH 1.2, 25 °C, pH 1.2, aqueous buffer, thermodynamic from solid, read-out: solubility in KCl pH 1.2",831 ± 42 µg/mL
same,solubility at 24 h,"[1]; PBS buffer (0.2 M) pH 6.8, 25 °C, pH 6.8, aqueous buffer, thermodynamic from solid, read-out: solubility in PBS pH 6.8",7 ± 1 µg/mL
O=C(CCCN1CCC(O)(c2ccc(Cl)cc2)CC1)c1ccc(F)cc1.O=C(O)CCCC(=O)O [HAL^+·GU^–],solubility in KCl pH 1.2,[1],1.021 ± 0.012 mg/mL
same,solubility in PBS pH 6.8,[1],0.048 ± 0.001 mg/mL
O=C(CCCN1CCC(O)(c2ccc(Cl)cc2)CC1)c1ccc(F)cc1.O=C(O)/C=C\C(=O)O [HAL^+·ME^–],solubility at 24 h,[1]; [4],1400 ± 20 µg/mL
same,solubility at 24 h,[1]; [5],74 ± 4 µg/mL
same,solubility of the salt relative to the ionic cocrystal (HAL^+)2·(FU^2–)·(FU),[1]; both phases with C4 coformers,twice
O=C(CCCN1CCC(O)(c2ccc(Cl)cc2)CC1)c1ccc(F)cc1.O=C(O)CC(=O)O [HAL^+·MO^–],solubility at 24 h,[1]; [4],525 ± 37 µg/mL
same,solubility at 24 h,[1]; [5],119 ± 2 µg/mL
O=C(CCCN1CCC(O)(c2ccc(Cl)cc2)CC1)c1ccc(F)cc1.O=C(O)CCCCCC(=O)O [HAL^+·PI^–],solubility in KCl pH 1.2,[1],1.246 ± 0.035 mg/mL
same,improvement over HAL (solubility in KCl pH 1.2),[1],1.5×
same,solubility in PBS pH 6.8,[1],0.072 ± 0.001 mg/mL
same,improvement over HAL (solubility in PBS pH 6.8),[1],9.7×
"O=C(O)CCCCCC(=O)O [Pimelic acid, pimelic acid]",ΔpKa1 (difference of acidity of the coformer with HAL),[2],3.55
"O=C(O)CCCCCCC(=O)O [Suberic acid, suberic acid]",ΔpKa1 (difference of acidity of the coformer with HAL),[2],3.52
